# Assay results reported in the OligoGym collection.
# HELM strings list units from the 5' end as sugar, base in round brackets, then linkage (d deoxyribose, r ribose, m 2'-O-methyl, p phosphodiester). Strings are as the collection lists them; they lack the last nucleoside at the 3' end of the tested compound. [moe] = 2'-O-(2-methoxyethyl) (MOE); [sp] = phosphorothioate linkage; [m5C] = 5-methylcytosine
# Target: SMN2
# Assay: mouse, dose not given
# Settings: ASO
row,Substance,3 h FOB score [score 0-7]
1,RNA1{[moe](T)[sp].[moe]([m5C])[sp].[moe](A)[sp].[moe]([m5C])[sp].[moe](T)[sp].[moe](T)[sp].[moe](T)[sp].[moe]([m5C])[sp].[moe](A)p.[moe](T)[sp].[moe](A)[sp].[moe](A)[sp].[moe](T)[sp].[moe](G)[sp].[moe]([m5C])p.[moe](T)[sp].[moe](G)}$$$$ (last 3' nucleoside missing),3.25
2,RNA1{[moe](T)[sp].[moe]([m5C])[sp].[moe](A)[sp].[moe]([m5C])[sp].[moe](T)[sp].[moe](T)[sp].[moe](T)[sp].[moe]([m5C])[sp].[moe](A)p.[moe](T)[sp].[moe](A)[sp].[moe](A)[sp].[moe](T)[sp].[moe](G)p.[moe]([m5C])[sp].[moe](T)[sp].[moe](G)}$$$$ (last 3' nucleoside missing),3.5
3,RNA1{[moe](T)[sp].[moe]([m5C])[sp].[moe](A)[sp].[moe]([m5C])[sp].[moe](T)[sp].[moe](T)[sp].[moe](T)[sp].[moe]([m5C])p.[moe](A)[sp].[moe](T)[sp].[moe](A)[sp].[moe](A)[sp].[moe](T)[sp].[moe](G)[sp].[moe]([m5C])[sp].[moe](T)[sp].[moe](G)}$$$$ (last 3' nucleoside missing),4.25
4,RNA1{[moe](T)[sp].[moe]([m5C])[sp].[moe](A)[sp].[moe]([m5C])[sp].[moe](T)[sp].[moe](T)[sp].[moe](T)[sp].[moe]([m5C])p.[moe](A)p.[moe](T)[sp].[moe](A)[sp].[moe](A)[sp].[moe](T)[sp].[moe](G)[sp].[moe]([m5C])[sp].[moe](T)[sp].[moe](G)}$$$$ (last 3' nucleoside missing),4
5,RNA1{[moe](T)[sp].[moe]([m5C])[sp].[moe](A)[sp].[moe]([m5C])[sp].[moe](T)[sp].[moe](T)p.[moe](T)[sp].[moe]([m5C])[sp].[moe](A)[sp].[moe](T)[sp].[moe](A)[sp].[moe](A)[sp].[moe](T)[sp].[moe](G)[sp].[moe]([m5C])[sp].[moe](T)[sp].[moe](G)}$$$$ (last 3' nucleoside missing),4
6,RNA1{[moe](T)[sp].[moe]([m5C])[sp].[moe](A)[sp].[moe]([m5C])p.[moe](T)[sp].[moe](T)[sp].[moe](T)[sp].[moe]([m5C])[sp].[moe](A)[sp].[moe](T)[sp].[moe](A)[sp].[moe](A)[sp].[moe](T)[sp].[moe](G)[sp].[moe]([m5C])[sp].[moe](T)[sp].[moe](G)}$$$$ (last 3' nucleoside missing),3.5
7,RNA1{[moe](T)[sp].[moe]([m5C])p.[moe](A)[sp].[moe]([m5C])[sp].[moe](T)[sp].[moe](T)[sp].[moe](T)[sp].[moe]([m5C])[sp].[moe](A)[sp].[moe](T)[sp].[moe](A)[sp].[moe](A)[sp].[moe](T)[sp].[moe](G)[sp].[moe]([m5C])[sp].[moe](T)[sp].[moe](G)}$$$$ (last 3' nucleoside missing),3.25
8,RNA1{[moe](T)[sp].[moe]([m5C])p.[moe](A)[sp].[moe]([m5C])[sp].[moe](T)[sp].[moe](T)[sp].[moe](T)[sp].[moe]([m5C])[sp].[moe](A)[sp].[moe](T)[sp].[moe](A)[sp].[moe](A)[sp].[moe](T)[sp].[moe](G)[sp].[moe]([m5C])p.[moe](T)[sp].[moe](G)}$$$$ (last 3' nucleoside missing),3.5
9,RNA1{[moe](T)[sp].[moe]([m5C])p.[moe](A)[sp].[moe]([m5C])[sp].[moe](T)[sp].[moe](T)[sp].[moe](T)[sp].[moe]([m5C])[sp].[moe](A)p.[moe](T)[sp].[moe](A)[sp].[moe](A)[sp].[moe](T)[sp].[moe](G)[sp].[moe]([m5C])[sp].[moe](T)[sp].[moe](G)}$$$$ (last 3' nucleoside missing),4
10,RNA1{[moe](T)[sp].[moe]([m5C])p.[moe](A)[sp].[moe]([m5C])p.[moe](T)[sp].[moe](T)[sp].[moe](T)[sp].[moe]([m5C])[sp].[moe](A)[sp].[moe](T)[sp].[moe](A)[sp].[moe](A)[sp].[moe](T)[sp].[moe](G)[sp].[moe]([m5C])[sp].[moe](T)[sp].[moe](G)}$$$$ (last 3' nucleoside missing),3.75
11,RNA1{[moe](T)[sp].[moe]([m5C])p.[moe](A)p.[moe]([m5C])[sp].[moe](T)[sp].[moe](T)[sp].[moe](T)[sp].[moe]([m5C])[sp].[moe](A)[sp].[moe](T)[sp].[moe](A)[sp].[moe](A)[sp].[moe](T)[sp].[moe](G)[sp].[moe]([m5C])[sp].[moe](T)[sp].[moe](G)}$$$$ (last 3' nucleoside missing),4.75
12,RNA1{[moe](T)p.[moe](T)[sp].[moe]([m5C])[sp].[moe](A)[sp].[moe]([m5C])[sp].[moe](T)[sp].[moe](T)[sp].[moe](T)[sp].[moe]([m5C])[sp].[moe](A)[sp].[moe](T)[sp].[moe](A)[sp].[moe](A)[sp].[moe](T)[sp].[moe](G)[sp].[moe]([m5C])[sp].[moe](T)[sp].[moe](G)[sp].[moe](G)}$$$$ (last 3' nucleoside missing),3.25
13,RNA1{[moe](T)p.[moe](T)[sp].[moe]([m5C])[sp].[moe](A)[sp].[moe]([m5C])[sp].[moe](T)[sp].[moe](T)[sp].[moe](T)[sp].[moe]([m5C])[sp].[moe](A)[sp].[moe](T)[sp].[moe](A)[sp].[moe](A)[sp].[moe](T)[sp].[moe](G)[sp].[moe]([m5C])[sp].[moe](T)[sp].[moe](G)}$$$$ (last 3' nucleoside missing),4
14,RNA1{[moe]([m5C])[sp].[moe](A)[sp].[moe]([m5C])[sp].[moe](T)[sp].[moe](T)[sp].[moe](T)[sp].[moe]([m5C])[sp].[moe](A)[sp].[moe](T)[sp].[moe](A)[sp].[moe](A)[sp].[moe](T)[sp].[moe](G)[sp].[moe]([m5C])[sp].[moe](T)[sp].[moe](G)[sp].[moe](G)[sp].[moe]([m5C])[sp].[moe](A)}$$$$ (last 3' nucleoside missing),0
15,RNA1{[moe]([m5C])[sp].[moe](A)[sp].[moe]([m5C])[sp].[moe](T)[sp].[moe](T)[sp].[moe](T)[sp].[moe]([m5C])[sp].[moe](A)[sp].[moe](T)[sp].[moe](A)[sp].[moe](A)[sp].[moe](T)[sp].[moe](G)[sp].[moe]([m5C])[sp].[moe](T)[sp].[moe](G)[sp].[moe](G)[sp].[moe]([m5C])}$$$$ (last 3' nucleoside missing),0
16,RNA1{[moe]([m5C])[sp].[moe](A)[sp].[moe]([m5C])[sp].[moe](T)[sp].[moe](T)[sp].[moe](T)[sp].[moe]([m5C])[sp].[moe](A)[sp].[moe](T)[sp].[moe](A)[sp].[moe](A)[sp].[moe](T)[sp].[moe](G)[sp].[moe]([m5C])[sp].[moe](T)[sp].[moe](G)[sp].[moe](G)}$$$$ (last 3' nucleoside missing),2.5
17,RNA1{[moe]([m5C])[sp].[moe](A)[sp].[moe]([m5C])[sp].[moe](T)[sp].[moe](T)[sp].[moe](T)[sp].[moe]([m5C])[sp].[moe](A)[sp].[moe](T)[sp].[moe](A)[sp].[moe](A)[sp].[moe](T)[sp].[moe](G)[sp].[moe]([m5C])[sp].[moe](T)[sp].[moe](G)}$$$$ (last 3' nucleoside missing),3.25
